Measured values reported in US11452781B2, “Method of preventing and treating type 1 diabetes, allograft rejection and lung fibrosis (by targeting the ATP/P2X7R axis)” (CHILDREN'S MEDICAL CENTER CORPORATION, priority 2013, dated 2022).
Several values for one entry are separate records, joined by “and”; a condition that tells them apart may be missing. Identical values can stand only once. Entries after “also recorded” stand apart in the source; their conditions may differ.

Columns and labels:
[1] = tested on: A549 cells co-cultured with PBMCs; experiment: Cytotoxicity of human PBMC upon IFN-γ stimulated A549 cells, 7 days co-culture; type: cell-based; conditions: increasing doses of oATP
Experimental: FIG. 16A depicts a graph of CD8 activation levels. To better assess the response of CD8 T cells, splenocytes isolated from OT1 mice were stimulated with OVA peptide with and without (positive control) oATP (100 μM) and T cell proliferation determined. […] FIG. 16C depicts photomicroscopy images and a graph of cell growth and survival. Freshly isolated human peripheral blood mononuclear cells (PBMCs, 4×10^5/ml) were applied onto pre-seeded A549 cells (at ˜20% confluency). Cells were cultured in RPMI medium supplemented with interferon gamma (IFNγ) with or without oATP for 7 days. Shown are representative images of A549 cells, and A549 cells co-cultured with PBMCs in the presence and absence of 200 μM oATP. Images were taken on day 7 of the co-culture. […]
Outcome Measures—In vivo assessment of transplanted lung function was performed by thoracic CT scan imaging and measuring peak airway pressures (PawP) as previously described {Bizargity, #22}. ATP levels were measured from transplanted lung bronchoalveolar lavage fluid (BAL) by bioluminescent detection using Enliten ATP assay system (FF2000, Promega Corporation, Madison, Wis.). […] Immunohistochemistry was performed on frozen lung tissue sections utilizing CD4 and CD8 antibodies and isotype controls and assessed based on the average of 10 high power fields/lung allograft. […]

[2] = tested on: C57BL/6 mice transplanted with BALB/c islets; experiment: Allogeneic islet transplantation, BALB/c islets into diabetic C57BL/6 mice: graft survival; type: in vivo, mouse
[3] = tested on: splenocytes of islet-transplanted mice; experiment: Immune profiling of islet-transplanted mice (ELISPOT, flow cytometry, serum cytokines); type: in vivo, mouse; conditions: day 14
Experimental: The effect of oATP treatment on the immune system of transplanted mice was tested. Splenocytes were collected in untreated or oATP-treated mice at day 14 after transplantation and challenged ex vivo in an ELISPOT assay with BALB/c irradiated splenocytes.
Immune profiling of islet-transplanted oATP-treated and untreated mice was performed at day 14 after transplantation.

C57BL/6 splenocytes = experiment: Apoptosis of allo-challenged splenocytes (annexin V, FACS); conditions: oATP, 24 h
Experimental: To confirm the data obtained in vivo, the effect of targeting P2X7R in vitro was evaluated using alloimmune-relevant assays. Responder splenocytes from C57BL/6 mice were challenged with irradiated stimulator splenocytes from BALB/c mice. The numbers of cells producing IFN-γ and IL-4 were evaluated in an ELISPOT assay in the presence of increasing concentrations of oATP.

islet allografts = experiment: Islet allograft pathology, RT-PCR transcripts, insulin and glucagon content; type: in vivo, mouse
Experimental: The presence of […] was then analyzed in the graft infiltrate by quantification, via RT-PCR, by assessing intra-graft Tbet and Rorc mRNA expression.

naïve Th0 cells = experiment: Th1/Th17 generation and differentiation assay; type: cell-based, mouse; conditions: 100 μM oATP
Experimental: Naïve Th0 cells were differentiated into Th1 or Th17 cells, and IFN-γ^+ and IL-17^+ cells were quantified by flow cytometry. Addition of 100 μM oATP inhibited the conversion of naïve Th0 cells into Th1 (FIGS. 6A-6B) and Th17 cells (FIGS. 6C-6D).
To address the mechanisms underlying P2X7R targeting mediated inhibition of cardiac transplant rejection, the inventors analyzed the effect of P2X7R targeting on T-cell activation and Th1/Th17 differentiation in vitro. […] The effect of in vitro P2X7R targeting with oATP during CD4+ T-cell activation was tested. […] Second, in a T-cell proliferation assay, carboxyfluorescein diacetate succinimidyl ester-labeled naïve CD4+ T cells were stimulated for 96 hours with 0.5 μg/mL anti-CD3-Ig and anti-CD28-Ig, and treatment with 100 μM oATP diminished CD4+ T cell proliferation in comparison with controls. […] The inventors next tested the effect of in vitro P2X7R targeting during a Th1/Th17 generation and differentiation assay. […] P2X7R targeting with oATP inhibited Th0 conversion into both Th1 and Th17, as assessed by the percentage of IFN-γ+ and IL-17+ cells, respectively. […] In a Th1/Th17 generation assay, pmY-P2X7R CD4+ T cells seemed to display increased differentiation capacity in comparison with pmY-mock CD4+ T cells, as assessed by T-bet and ROR-γ expression.

[4] = tested on: C57BL/6 mice transplanted with bm12 hearts; experiment: Chronic cardiac transplant rejection, bm12 donors to C57BL/6 recipients; type: in vivo, mouse
Experimental: To evaluate the importance of P2X7R signaling and targeting in a clinically relevant setting, the effect of oATP treatment in a model of cardiac transplant chronic rejection (bm12 donors to C57BL/6 recipients) was tested. […] Cardiac allograft pathology was assessed 40 days after transplantation of bm12 hearts into C57BL/6 mice.

periodate-oxidized ATP [oATP]
cytolytic activity of PBMC on A549 cells [1]: remarkable reduction | islet allograft survival (in words) ([2]; mouse, in vivo): prolongs graft survival | mice with long-term graft function at 100 days (of n) ([2]; mouse, in vivo): 3 out of 10 and 3 of 10 | islet allograft mean survival time (MST) ([2]; oATP daily i.p. 14-15 days, rapamycin 0.1 mg/kg 10 days): 22 days | Th17 cells [3]: reduced; also recorded: Slight reductions | number of cells producing IL-4 [3]: no effect | percentages of CD8+ T effector cells [3]: Slight reductions | percentages of peripheral CD4+ T effector cells [3]: No significant changes | percentages of regulatory T-cells [3]: No differences | serum IL-6 [3]: reduced | percentage of apoptotic cells (annexin V+) (C57BL/6 splenocytes): no increase | islet structure, insulin and glucagon staining (islet allografts; day 14 (oATP), long-term (oATP+rapamycin)): preserved insulin staining; also recorded: maintained | reduction of Tbet mRNA expression vs untreated (islet allografts; day 14, n=3): threefold decrease | conversion of naïve Th0 cells into Th1 (IFN-γ+ cells) (naïve Th0 cells): inhibited | conversion of naïve Th0 cells into Th17 (IL-17+ cells) (naïve Th0 cells): inhibited | cardiac allograft pathology (infiltration, coronaropathy) ([4]; 40 days after transplantation): only mild cellular infiltration and the absence of coronaropathy | IFN-γ-producing cells (ELISPOT) ([4]; mouse, in vivo): reduced number | IL-4-producing cells (ELISPOT) ([4]; mouse, in vivo): increased number
